The record followed here is ChEMBL document CHEMBL4270667, “Design and Synthesis of Potent HIV-1 Protease Inhibitors Containing Bicyclic Oxazolidinone Scaffold as the P2 Ligands: Structure-Activity Studies and Biological and X-ray Structural Studies” (J Med Chem, 2018).

The structures appear in SMILES notation. pIC50, pKi: −log10 of the molar value.

In one data set the target is Protease (Human immunodeficiency virus 1, UniProt Q9YQ12). Put plainly: Inhibition of HIV1 wild type NL4-3 protease expressed in Escherichia coli Rosetta (DE3) pLysS using Abz-Thr-Ile-Nle-Phe-(pNO2)-Gln-Arg-NH2 as substrate preincubated for 5 to 10 mins followed by substrate addition measured after 1 hr by fluorescence assay.
Chain of Protease (Q9YQ12 whole entry): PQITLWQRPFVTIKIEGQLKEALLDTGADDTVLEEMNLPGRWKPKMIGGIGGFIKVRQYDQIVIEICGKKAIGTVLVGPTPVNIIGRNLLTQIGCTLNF
Data set [1] relates to Human immunodeficiency virus 1. Description: Antiviral activity against HIV1 NL4-3 infected in human MT4 cells assessed as reduction in p24 Gag protein production after 7 days by automated chemiluminescent enzyme immunoassay. In kind it is functional, organism-based. The note with it: Human immunodeficiency virus 1, NL4-3, MT4, 168 h.
In data set [2] the test system is Human immunodeficiency virus 1. Put plainly: Antiviral activity against darunavir-resistant HIV1 at passage 30 infected in human MT4 cells assessed as reduction in p24 Gag protein production after 7 days by automated chemiluminescent enzyme immunoassay. Format: functional, organism-based. As to conditions: Human immunodeficiency virus 1, MT4, 168 h.
Data set [3] concerns Human immunodeficiency virus 1. Put plainly: Antiviral activity against darunavir-resistant HIV1 at passage 21 infected in human MT4 cells assessed as reduction in p24 Gag protein production after 7 days by automated chemiluminescent enzyme immunoassay. Format: functional, organism-based. The note with it: Human immunodeficiency virus 1, MT4, 168 h.
Data set [4] deals with Human immunodeficiency virus 1. Description: Antiviral activity against lopinavir-resistant HIV1 infected in human MT4 cells assessed as reduction in p24 Gag protein production after 7 days by automated chemiluminescent enzyme immunoassay. In kind it is functional, organism-based. As to conditions: Human immunodeficiency virus 1, MT4, 168 h.
Data set [5] deals with Human immunodeficiency virus 1. Description: Antiviral activity against amprenavir-resistant HIV1 infected in human MT4 cells assessed as reduction in p24 Gag protein production after 7 days by automated chemiluminescent enzyme immunoassay. As to conditions: Human immunodeficiency virus 1, MT4, 168 h. Format: functional, organism-based.
The subject of data set [6] is Human immunodeficiency virus 1. Put plainly: Antiviral activity against Atazanavir-resistant HIV1 infected in human MT4 cells assessed as reduction in p24 Gag protein production after 7 days by automated chemiluminescent enzyme immunoassay. In kind it is functional, organism-based. The note with it: Human immunodeficiency virus 1, MT4, 168 h.
Data set [7] concerns Human immunodeficiency virus 1. Put plainly: Antiviral activity against darunavir-resistant HIV1 at passage 51 infected in human MT4 cells assessed as reduction in p24 Gag protein production after 7 days by automated chemiluminescent enzyme immunoassay. In kind it is functional, organism-based. The note with it: Human immunodeficiency virus 1, MT4, 168 h.
Data set [8] can be described thus: Selectivity ratio of CC50 for human MT4 cells to IC50 for HIV1 NL4-3 infected in human MT4 cells. In kind it is toxicity, cell-based. The note with it: MT4 cells infected with HIV1 NL4-3, read-out: Ratio CC50/IC50.
For a further data set, the system named is MT4. Put plainly: Cytotoxicity against human MT4 cells after 7 days by MTT assay. In kind it is cell-based. As to conditions: mt4, 168 h. In general terms: Tetrazolium dyes change colour on reduction, which living cells bring about.

By pKi is commonly meant the negative decadic logarithm of the Ki, by convention in mol/L. Broadly, the pIC50 is −log10 of the IC50, conventionally taken in molar units. As to `C=CCN1C(=O)O[C@@H]2C[C@H](OC(=O)N[C@@H](Cc3ccccc3)[C@H](O)CN(CC(C)C)S(=O)(=O)c3ccc(OC)cc3)C[C@@H]21`, the pKi at Protease was 10.80. Further, in data set [1], the pIC50 was 6.43.

Consider `COc1ccc(S(=O)(=O)N(CC(C)C)C[C@@H](O)[C@H](Cc2ccccc2)NC(=O)O[C@H]2C[C@H]3OC(=O)N(c4ccccc4OC)[C@H]3C2)cc1`, for which, at Protease, the negative-log Ki (pKi) was 10.10. In addition, the pIC50 in data set [1] is 6.60.

The compound `COc1ccc(S(=O)(=O)N(CC(C)C)C[C@@H](O)[C@H](Cc2ccccc2)NC(=O)O[C@H]2C[C@H]3OC(=O)N(c4cccc(OC)c4)[C@H]3C2)cc1` had a pKi at Protease of 7.03. The negative logarithm of the IC50 (pIC50) in data set [1] is less than 6.00.

Turning to `CC(C)CN(C[C@@H](O)[C@H](Cc1ccccc1)NC(=O)O[C@H]1CCOC1)S(=O)(=O)c1ccc(N)cc1`, the pIC50 in [2] was less than 6.00; in [3], less than 6.00; in data set [4], less than 6.00; in data set [5] it was less than 6.00; in data set [6] it was less than 6.00; in [1], 6.37. Also, in data set [7], the negative logarithm of the IC50 (pIC50) is less than 6.00.

The compound `COCN1C(=O)O[C@@H]2C[C@H](OC(=O)N[C@@H](Cc3ccccc3)[C@H](O)CN(CC(C)C)S(=O)(=O)c3ccc(OC)cc3)C[C@@H]21` had a pKi at Protease of 10.80. Besides, in data set [1], the pIC50 is 7.08.

`COc1ccc(S(=O)(=O)N(CC(C)C)C[C@@H](O)[C@H](Cc2ccccc2)NC(=O)O[C@H]2C[C@H]3OC(=O)N(C)[C@H]3C2)cc1`: the pKi at Protease was 10.52. Moreover, the pIC50 in [1] was 7.44. The selectivity ratio in [8] was greater than 2780.

As to `CC(C)CN(C[C@@H](O)[C@H](Cc1ccccc1)NC(=O)O[C@H]1CO[C@H]2OCC[C@H]21)S(=O)(=O)c1ccc(N)cc1`, the results for the negative-log IC50 (pIC50) in data set [1] and in [7] were 8.46 to 8.49 and less than 6.00, respectively.

As usually defined, the CC50 is the concentration at which the toxic effect on the cells reaches its halfway point. A high value points to better tolerance by the cells. `C=C(C)CN1C(=O)O[C@@H]2C[C@H](OC(=O)N[C@@H](Cc3ccccc3)[C@H](O)CN(CC(C)C)S(=O)(=O)c3ccc(OC)cc3)C[C@@H]21` had a negative-log Ki (pKi) at Protease of 10.40. The negative-log IC50 (pIC50) in data set [2] was less than 6.00; in data set [3], less than 6.00; in [4] it was less than 6.00; in data set [5], 6.58; in [6] it was 7.44; in data set [1] it was 7.51 to 7.64. For the same compound, in data set [7], the negative-log IC50 (pIC50) was less than 6.00. In the data set on MT4, this compound displayed a CC50 greater than 100000 nM. Also, in [8], the selectivity ratio was greater than 3230.

Regarding `COc1ccc(S(=O)(=O)N(CC(C)C)C[C@@H](O)[C@H](Cc2ccccc2)NC(=O)O[C@H]2C[C@H]3OC(=O)N(c4ccccc4)[C@H]3C2)cc1`, the pKi at Protease was 9.48. Besides, the negative-log IC50 (pIC50) in [1] is less than 6.00.

`COc1ccc(S(=O)(=O)N(CC(C)C)C[C@@H](O)[C@H](Cc2ccccc2)NC(=O)O[C@H]2C[C@H]3OC(=O)N(CC(C)C)[C@H]3C2)cc1` showed a pKi at Protease of 9.80. Besides, the negative-log IC50 (pIC50) in data set [2] is less than 6.00; in data set [3], less than 6.00; in data set [4], 6.21; in data set [5], 6.51; in [6] it was 7.48; in [7], less than 6.00. Also, in the data set on MT4, the CC50 was greater than 100000 nM. Besides, the selectivity ratio in [8] is greater than 2440.

Consider `COc1ccc(S(=O)(=O)N(CC(C)C)C[C@@H](O)[C@H](Cc2ccccc2)NC(=O)O[C@@H]2C[C@@H]3NC(=O)O[C@@H]3C2)cc1`, for which the negative logarithm of the Ki (pKi) on Protease is 11.92. The cytotoxic concentration (CC50) in the data set on MT4 is greater than 100000 nM. In addition, the negative logarithm of the IC50 (pIC50) in data set [1] was 7.32. Moreover, the selectivity ratio in [8] is greater than 2070.

Consider `COc1ccc(S(=O)(=O)N(CC(C)C)C[C@@H](O)[C@H](Cc2ccccc2)NC(=O)O[C@@H]2C[C@@H]3OC(=O)N[C@@H]3C2)cc1`, for which, on Protease, the negative-log Ki (pKi) was 8.88. Also, the pIC50 in data set [1] is less than 6.00.

`COc1ccc(S(=O)(=O)N(CC(C)C)C[C@@H](O)[C@H](Cc2ccccc2)NC(=O)O[C@@H]2C[C@@H]3OC(=O)N(C)[C@@H]3C2)cc1` had a pKi on Protease of 9.80. The compound further had a CC50 in the data set on MT4 greater than 100000 nM. Moreover, the pIC50 in [1] is 6.36. In addition, in [8], the selectivity ratio is greater than 229.

As to `CC(C)(C)NC(=O)[C@@H]1C[C@@H]2CCCC[C@@H]2CN1C[C@@H](O)[C@H](Cc1ccccc1)NC(=O)[C@H](CC(N)=O)NC(=O)c1ccc2ccccc2n1`, in [1], the pIC50 is 7.68.

As for `COC(=O)N[C@H](C(=O)N[C@@H](Cc1ccccc1)[C@@H](O)CN(Cc1ccc(-c2ccccn2)cc1)NC(=O)[C@@H](NC(=O)OC)C(C)(C)C)C(C)(C)C` [ATAZANAVIR], the negative-log IC50 (pIC50) is less than 6.00 in data set [2]; less than 6.00 in data set [3]; 6.53 in data set [4]; 8.70 in [5]; less than 6.00 in [6]; 9.05 in [1]. The pIC50 in [7] is less than 6.00.

`CC(C)CN(C[C@@H](O)[C@H](Cc1ccccc1)NC(=O)O[C@H]1C[C@H]2OC(=O)N(C)[C@H]2C1)S(=O)(=O)c1ccc2nc(NC3CC3)sc2c1` gave a pKi on Protease of 9.72. The midpoint of cytotoxicity in the data set with MT4, the CC50, lay at 43000 nM. Moreover, the negative-log IC50 (pIC50) in [1] is 7.55. Further, the selectivity ratio in data set [8] came to 1540.

The compound `COc1ccc(N2C(=O)O[C@@H]3C[C@H](OC(=O)N[C@@H](Cc4ccccc4)[C@H](O)CN(CC(C)C)S(=O)(=O)c4ccc(OC)cc4)C[C@@H]32)cc1` gave a negative-log Ki (pKi) on Protease of 9.20. Besides, the pIC50 in data set [1] was less than 6.00.

In turn, `CCCN1C(=O)O[C@@H]2C[C@H](OC(=O)N[C@@H](Cc3ccccc3)[C@H](O)CN(CC(C)C)S(=O)(=O)c3ccc(OC)cc3)C[C@@H]21` had a negative-log Ki (pKi) at Protease of 9.85. Further, the pIC50 in data set [1] was 6.35.

In the case of `Cc1cccc(C)c1OCC(=O)N[C@@H](Cc1ccccc1)[C@@H](O)C[C@H](Cc1ccccc1)NC(=O)[C@H](C(C)C)N1CCCNC1=O` [LOPINAVIR], the pIC50 in data set [2] is less than 6.00; in [3] it was less than 6.00; in data set [4], less than 6.00; in data set [5], 6.66; in data set [6], 6.51; in data set [1] it was 8.22. For the same compound, the pIC50 in [7] is less than 6.00.
